Test results reported in ChEMBL document CHEMBL5252635, “The Mycobacterium tuberculosis mycothiol S-transferase is divalent metal-dependent for mycothiol binding and transfer” (2023).

How the values were obtained:
[1] = target: T1, Conserved protein (Mycobacterium tuberculosis) (UniProt O53728)
T1 sequence (whole entry): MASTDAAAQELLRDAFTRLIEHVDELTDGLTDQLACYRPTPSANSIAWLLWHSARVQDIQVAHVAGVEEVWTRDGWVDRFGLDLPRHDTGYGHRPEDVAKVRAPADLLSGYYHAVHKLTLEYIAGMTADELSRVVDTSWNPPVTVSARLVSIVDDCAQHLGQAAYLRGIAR
Description: Binding affinity to Mycobacterium tuberculosis MST assessed as change in melting temperature in presence of nickle by differential scanning fluorimetry method

[2] = target: T1, Conserved protein (Mycobacterium tuberculosis); remark: listed apart in the source
Description: Binding affinity to Mycobacterium tuberculosis MST assessed as melting temperature in presence of zinc by differential scanning fluorimetry method

[3] = target: T1, Conserved protein (Mycobacterium tuberculosis); remark: listed apart in the source
Description: Binding affinity to Mycobacterium tuberculosis MST assessed as change in melting temperature in presence of ferrous by differential scanning fluorimetry method

[4] = target: T1, Conserved protein (Mycobacterium tuberculosis); remark: listed apart in the source
Description: Binding affinity to Mycobacterium tuberculosis MST assessed as change in melting temperature in presence of zinc by differential scanning fluorimetry method

[5] = target: T1, Conserved protein (Mycobacterium tuberculosis); remark: listed apart in the source
Description: Binding affinity to Mycobacterium tuberculosis MST assessed as melting temperature by differential scanning fluorimetry method

[6] = target: T1, Conserved protein (Mycobacterium tuberculosis); remark: listed apart in the source
Description: Binding affinity to Mycobacterium tuberculosis MST assessed as change in melting temperature in presence of cobalt by differential scanning fluorimetry method

[7] = target: T1, Conserved protein (Mycobacterium tuberculosis); remark: listed apart in the source
Description: Binding affinity to Mycobacterium tuberculosis MST assessed as melting temperature in presence of cobalt by differential scanning fluorimetry method

[8] = target: T1, Conserved protein (Mycobacterium tuberculosis); remark: listed apart in the source
Description: Binding affinity to Mycobacterium tuberculosis MST assessed as melting temperature in presence of ferrous by differential scanning fluorimetry method

[9] = target: T1, Conserved protein (Mycobacterium tuberculosis); remark: listed apart in the source
Description: Binding affinity to Mycobacterium tuberculosis MST assessed as melting temperature in presence of nickle by differential scanning fluorimetry method

## CC(=O)N[C@@H](CS)C(=O)N[C@H]1[C@@H](O[C@@H]2[C@H](O)[C@H](O)[C@@H](O)[C@H](O)[C@H]2O)O[C@H](CO)[C@@H](O)[C@@H]1O
[1]
  ΔTm: 9.9 °C
[2]
  Tm: 71.9 °C
[3]
  ΔTm: 3.2 °C
[4]
  ΔTm: 12.9 °C
[5]
  Tm: 59 °C
[6]
  ΔTm: 6.1 °C
[7]
  Tm: 65.1 °C
[8]
  Tm: 62.2 °C
[9]
  Tm: 68.9 °C
